According to patent US11173167B2, “Nutritional intervention for improving muscular function and strength” (Metabolic Technologies, Inc., priority 2008, dated 2021):

Columns and labels:
[1] = 12-week HMB / Vitamin D study, knee extension strength (BIODEX peak torque); format: in vivo, human; settings: older adults, 8 weeks
Excerpt: (§1) Prior to the start of the experimental period, we randomly assigned nutritional supplements to each subject using computer-generated random numbers in a double-blind fashion. Treatments were arranged in a 2×2 factorial design with two levels of HMB (0 & 3.0 g/d) and two levels of Vitamin D (0 & 2,000 IU/d). We assigned subjects to one of the following four treatments:
The exercise testing and training session was supervised by trained research associates. Resting heart rate and blood pressure measurements were obtained prior to strength measurements. Enrolled individuals participated in an exercise training program consisting of strength training exercises with Theraband® stretch cords (resistance training) and jumping. The equipment consisted of items that can easily be used at home. Exercise sessions were 3 times a week for 12 weeks. Each exercise session was about 45-60 minutes. […]
Body composition measurements were obtained at 0, 4, 8, and 12 weeks. […] Handgrip strength was measured using a handgrip dynamometer. Peak torque for knee extension and flexion was measured at 60, 90 and 120°/sec. Peak torque for elbow extension and flexion was measured at 60 and 120°/sec.
(§2) Least Squares Mean±SEM were calculated strength and functionality changes in each variable over the 12-week period. […] Statistical significance was determined for p<0.05 and a trend was determined for 0.05<p<0.10.

[2] = 12-week HMB / Vitamin D study, muscular performance index; format: in vivo, human; settings: eight week performance index, older adults
Excerpt: as §1
Functionality tests included: “Get-up-and-Go” performance (speed and gate), and “Get-up” performance. The “Get-up-and-Go” test consisted of timed measurements of the subject's starting from a seated position, standing, walking forward 3 meters, turning around, walking back to the chair, and sitting down. […] The complete descriptions and standardization of the tests are outlined in the Physical Dimensions of Aging by Waneen W. Spirduso (Human Kinetics, 1995).
A muscular performance index was calculated by summing the percentage change from baseline for Get-up-and-Go, Get-up, handgrip, peak torque for knee extension and flexion (60, 90 and 120°/sec) and peak torque for elbow extension and flexion (60°/sec).
as §2

[3] = system: Mouse C2C12 skeletal muscle cell myoblasts fused into myotubes; assay: Protein degradation and synthesis by leucine isotope release/disappearance in C2C12 myotubes with dexamethasone; format: cell-based; settings: 24 h, dexamethasone 100 nM
Experimental: Mouse C2C12 skeletal muscle cell myoblasts were grown in culture under standard conditions and fused into myotubes following the methods of Menconi et al. (95). Four separate studies were conducted during different weeks. The first 3 studies consisted of 4 replicate dishes per treatment and the fourth study consisted of 6 replicate dishes per treatment. The treatments were applied to the cells during the 24 h measurement period. Treatments applied were control, 25OH-VitD3 (200 ng/mL), HMB (200 μM HMB as Ca(HMB)2, and the combination of HMB and 25OH-VitD3. Dexamethasone (100 nM) was added to the culture medium during the treatment/measurement period to stimulate protein degradation. Calcium in the form of calcium chloride was added to the control and 25OH-VitD3 treatments so that all the treatments were balanced for calcium. For measurement of protein degradation during the treatment period, leucine free medium was obtained to which [5,5,5]^2H3-leucine was added so that the isotopes of leucine (natural leucine and [1-^13C]-leucine) could be measured as they were released into the medium through the protein degradation process. The measurement medium was sampled at 2 and 24 h and samples stored at −80° C. until analyzed. The samples were analyzed for leucine using a gas chromatography (model 6890, Hewlett Packard, Palo, Calif.) mass spectrometry (model 5973, Hewlett Packard, Palo, Calif.) and the gas chromatography column used for the analysis was a Zebron ZB-5. (Phenomenex, Torrence, Calif.). Natural leucine, [1-^13C]-leucine, and [5,5,5^2H3]-leucine were monitored at 302, 303, and 305 AMU, respectively. Corrections for sampling at 2 h and for leucine utilization from the measurement media were made. […] Concentrations of proteins were analyzed following the microplate assay instructions using a Pierce BCA protein assay kit (Thermo Scientific, Rockford, Ill.). DNA was measured flourometrically using the Quant-iT™ dsDNA assay kit from Invitrogen (Carlsbad, Calif.). […]

[4] = 12-week HMB / Vitamin D study, urinary HMB concentration (supplement compliance); format: in vivo, human; settings: clean catch urine sample, HMB 3.0 g/day
Experimental: The average 25OH-VitD3 concentration at wk 0 was 26.5 ng/ml. […] However, subjects either supplemented with a control or HMB alone decreased their serum 25OH-VitD3 level by 2.0 ng/mL. A clean catch urine sample was used to test for supplement compliance.

[5] = 12-week 2x2 HMB / Vitamin D study in older adults with exercise training, serum 25OH-VitD3; format: in vivo, human; settings: control or HMB alone, no Vitamin D supplement
Excerpt: Elderly women (n=30) and men (n=16) were recruited into a double-blinded controlled study. The older adults were recruited from two locations in South Dakota: Brookings and Sioux Falls. The subjects underwent an initial screening and were randomized to treatments. Testing consisted of an initial (0 weeks) and follow-up testing at 4, 8 and 12 weeks over the course of the 12-week study.
as §1
The treatments were supplied in capsules of equal size and color and contained equal amounts of calcium and phosphorus. The subjects were instructed to take three capsules two times a day. Each subject was supplied with a one-week supply of the supplement, allocated by subject number and returned each week for an additional 1-week supply. […]
as §2

[6] = after HMB is fed; cited from earlier work
[7] = molecular target: T1, 1-alpha, 25-Vitamin D hydroxylase (Homo sapiens, UniProt O15528); settings: human vascular smooth muscle; cited from earlier work
T1 sequence (O15528 1-508): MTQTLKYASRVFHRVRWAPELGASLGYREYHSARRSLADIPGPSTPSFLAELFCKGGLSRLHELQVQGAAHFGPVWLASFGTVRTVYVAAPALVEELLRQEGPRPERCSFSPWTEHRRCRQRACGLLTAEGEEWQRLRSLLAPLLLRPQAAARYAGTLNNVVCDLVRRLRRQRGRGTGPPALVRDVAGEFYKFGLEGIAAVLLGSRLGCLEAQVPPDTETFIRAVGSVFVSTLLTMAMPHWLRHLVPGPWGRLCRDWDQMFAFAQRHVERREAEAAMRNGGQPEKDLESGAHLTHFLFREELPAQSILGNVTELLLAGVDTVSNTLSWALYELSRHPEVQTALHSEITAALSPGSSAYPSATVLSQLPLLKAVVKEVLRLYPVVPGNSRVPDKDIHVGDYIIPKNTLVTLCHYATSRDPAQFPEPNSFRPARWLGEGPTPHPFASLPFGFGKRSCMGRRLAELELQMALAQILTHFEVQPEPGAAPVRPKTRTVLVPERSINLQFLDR

Compound	knee extension strength compared to control-treated subjects [1]	increase in the performance index over the control [2] [%]	dexamethasone stimulated protein degradation [3]	increase in urinary HMB concentration [4] [fold]	decrease in protein degradation measured by [1-13C]-leucine ([3]; HMB 200 μM) [%]	decrease in protein degradation measured by natural leucine ([3]; HMB 200 μM) [%]	decrease in serum 25OH-VitD3 level [5] [ng/mL]	loss of HMB to urine [6]	Km [7] [ng/mL]
C=C1CC[C@H](O)C/C1=C/C=C1\CCC[C@]2(C)[C@@H]([C@H](C)CCCC(C)C)CC[C@@H]12 [Vitamin D, cholecalciferol]	Neither the HMB alone nor the Vitamin D-treated subjects increased knee extension strength	58	tended to decrease dexamethasone stimulated protein degradation in only the faster turnover protein pool						
β-hydroxy-β-methylbutyrate [HMB]	Neither the HMB alone nor the Vitamin D-treated subjects increased knee extension strength	35		50	6.3	7.6	2.0	20-50%	
C=C1CC[C@H](O)C/C1=C/C=C1\CCC[C@]2(C)[C@@H]([C@H](C)CCCC(C)(C)O)CC[C@@H]12 [25OH-VitD3]									25
